# Reference: ChEMBL document CHEMBL1201862, “PubChem BioAssay data set” (2004)
# The source made the active and inactive calls.
# Assays:
# Prothrombin = Prothrombin (Homo sapiens, UniProt P00734); assay: Thrombin 1536 HTS Dose Response Confirmation. [Related pubchem assays: 1046 (Thrombin 1536 HTS; hits were confirmed in this assay)]; type: functional
# HEK293 = assay: inhibitors of LMP1-driven NF-kB reporter, dose response, cell-based, HEK293, luciferase, cherry-pick (AID 588343); type: functional, Homo sapiens; settings: Homo sapiens, HEK293
# [1] = target: T1, Calpain-2 catalytic subunit (Sus scrofa, UniProt P43367); assay: pig calpain II inhibitor potency, dose response, biochemical, fluorogenic peptide substrate (AID 1420); type: functional
# T1 sequence (P43367 whole entry): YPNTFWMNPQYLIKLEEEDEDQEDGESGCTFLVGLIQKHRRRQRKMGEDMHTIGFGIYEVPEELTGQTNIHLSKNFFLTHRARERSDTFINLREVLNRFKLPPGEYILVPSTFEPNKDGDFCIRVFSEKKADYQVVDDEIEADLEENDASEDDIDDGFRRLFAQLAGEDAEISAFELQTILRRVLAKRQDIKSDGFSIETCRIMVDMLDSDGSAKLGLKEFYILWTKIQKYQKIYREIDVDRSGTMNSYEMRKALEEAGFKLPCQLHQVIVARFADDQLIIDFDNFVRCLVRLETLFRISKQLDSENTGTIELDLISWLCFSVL
# Leucine aminopeptidase = target: T2, Leucine aminopeptidase (Plasmodium falciparum 3D7, UniProt Q8IL11); assay: P. falciparum M17LAP inhibitors, primary screen, biochemical, fluorogenic H-Leu-NHMec substrate, 1536-well (AID 1619); type: functional
# T2 sequence (Q8IL11 whole entry): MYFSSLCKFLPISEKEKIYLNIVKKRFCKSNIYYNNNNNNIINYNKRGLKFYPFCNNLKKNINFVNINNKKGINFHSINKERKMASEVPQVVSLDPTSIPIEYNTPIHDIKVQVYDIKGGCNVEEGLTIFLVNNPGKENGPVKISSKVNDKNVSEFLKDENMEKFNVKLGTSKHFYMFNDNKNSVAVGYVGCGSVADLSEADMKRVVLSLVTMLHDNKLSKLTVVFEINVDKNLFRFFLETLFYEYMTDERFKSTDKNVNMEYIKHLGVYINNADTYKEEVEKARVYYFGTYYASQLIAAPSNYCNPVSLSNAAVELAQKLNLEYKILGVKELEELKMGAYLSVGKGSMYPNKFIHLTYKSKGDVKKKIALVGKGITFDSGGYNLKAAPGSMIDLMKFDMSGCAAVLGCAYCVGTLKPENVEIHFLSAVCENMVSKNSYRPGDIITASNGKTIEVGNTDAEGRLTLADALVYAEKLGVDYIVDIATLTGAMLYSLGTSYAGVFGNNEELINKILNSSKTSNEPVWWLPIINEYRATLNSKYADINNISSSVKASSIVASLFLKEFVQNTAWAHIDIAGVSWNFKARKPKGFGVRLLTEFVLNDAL
# cells [2] = type: functional, cell-based
# Large T antigen = Large T antigen (Simian virus 40, UniProt P03070); type: functional, Betapolyomavirus macacae;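 further: Confirmatory-stage PubChem screen for compounds that inhibit SV40 T antigen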
# Sequence of Large T antigen (P03070 whole entry): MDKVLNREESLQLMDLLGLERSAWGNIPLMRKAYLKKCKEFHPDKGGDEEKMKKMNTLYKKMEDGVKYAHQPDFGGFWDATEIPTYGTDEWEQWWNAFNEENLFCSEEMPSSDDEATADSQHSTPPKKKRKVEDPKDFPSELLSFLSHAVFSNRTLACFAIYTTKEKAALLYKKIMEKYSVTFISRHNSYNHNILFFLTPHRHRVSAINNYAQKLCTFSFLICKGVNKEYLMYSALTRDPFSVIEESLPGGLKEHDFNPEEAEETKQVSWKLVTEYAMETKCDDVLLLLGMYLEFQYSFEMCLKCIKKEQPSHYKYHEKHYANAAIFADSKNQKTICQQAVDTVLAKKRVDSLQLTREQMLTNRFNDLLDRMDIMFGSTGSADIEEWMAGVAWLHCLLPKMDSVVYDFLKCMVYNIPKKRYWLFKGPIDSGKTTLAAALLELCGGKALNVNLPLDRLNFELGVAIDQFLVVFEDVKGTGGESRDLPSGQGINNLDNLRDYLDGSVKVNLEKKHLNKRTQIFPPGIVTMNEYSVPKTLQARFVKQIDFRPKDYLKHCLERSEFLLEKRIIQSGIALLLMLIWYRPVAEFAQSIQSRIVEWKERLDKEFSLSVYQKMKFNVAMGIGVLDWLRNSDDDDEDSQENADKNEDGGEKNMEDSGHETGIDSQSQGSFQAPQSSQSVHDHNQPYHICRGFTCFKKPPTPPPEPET
# cells [3] = type: functional, cell-based; remark: listed apart in the source
# [4] = inhibitors of SNCA 5'UTR-driven reporter translation, confirmation, H4 neuroglioma cells, luminescence (AID 1988); type: functional, cell-based
# [5] = Luminescence Cell-Based Dose Response HTS to Identify Inhibitors of 5'UTR Stem-Loop Driven Prion Protein mRNA Translation in H4 Neuroglioblastoma Cells. [Related pubchem assays: 1827 (Project Summary), 1813 (Primary HTS)]; type: functional
# [6] = target: T3, Histone-lysine N-methyltransferase NSD2 (Homo sapiens, UniProt O96028); type: biochemical
# T3 sequence (O96028 whole entry): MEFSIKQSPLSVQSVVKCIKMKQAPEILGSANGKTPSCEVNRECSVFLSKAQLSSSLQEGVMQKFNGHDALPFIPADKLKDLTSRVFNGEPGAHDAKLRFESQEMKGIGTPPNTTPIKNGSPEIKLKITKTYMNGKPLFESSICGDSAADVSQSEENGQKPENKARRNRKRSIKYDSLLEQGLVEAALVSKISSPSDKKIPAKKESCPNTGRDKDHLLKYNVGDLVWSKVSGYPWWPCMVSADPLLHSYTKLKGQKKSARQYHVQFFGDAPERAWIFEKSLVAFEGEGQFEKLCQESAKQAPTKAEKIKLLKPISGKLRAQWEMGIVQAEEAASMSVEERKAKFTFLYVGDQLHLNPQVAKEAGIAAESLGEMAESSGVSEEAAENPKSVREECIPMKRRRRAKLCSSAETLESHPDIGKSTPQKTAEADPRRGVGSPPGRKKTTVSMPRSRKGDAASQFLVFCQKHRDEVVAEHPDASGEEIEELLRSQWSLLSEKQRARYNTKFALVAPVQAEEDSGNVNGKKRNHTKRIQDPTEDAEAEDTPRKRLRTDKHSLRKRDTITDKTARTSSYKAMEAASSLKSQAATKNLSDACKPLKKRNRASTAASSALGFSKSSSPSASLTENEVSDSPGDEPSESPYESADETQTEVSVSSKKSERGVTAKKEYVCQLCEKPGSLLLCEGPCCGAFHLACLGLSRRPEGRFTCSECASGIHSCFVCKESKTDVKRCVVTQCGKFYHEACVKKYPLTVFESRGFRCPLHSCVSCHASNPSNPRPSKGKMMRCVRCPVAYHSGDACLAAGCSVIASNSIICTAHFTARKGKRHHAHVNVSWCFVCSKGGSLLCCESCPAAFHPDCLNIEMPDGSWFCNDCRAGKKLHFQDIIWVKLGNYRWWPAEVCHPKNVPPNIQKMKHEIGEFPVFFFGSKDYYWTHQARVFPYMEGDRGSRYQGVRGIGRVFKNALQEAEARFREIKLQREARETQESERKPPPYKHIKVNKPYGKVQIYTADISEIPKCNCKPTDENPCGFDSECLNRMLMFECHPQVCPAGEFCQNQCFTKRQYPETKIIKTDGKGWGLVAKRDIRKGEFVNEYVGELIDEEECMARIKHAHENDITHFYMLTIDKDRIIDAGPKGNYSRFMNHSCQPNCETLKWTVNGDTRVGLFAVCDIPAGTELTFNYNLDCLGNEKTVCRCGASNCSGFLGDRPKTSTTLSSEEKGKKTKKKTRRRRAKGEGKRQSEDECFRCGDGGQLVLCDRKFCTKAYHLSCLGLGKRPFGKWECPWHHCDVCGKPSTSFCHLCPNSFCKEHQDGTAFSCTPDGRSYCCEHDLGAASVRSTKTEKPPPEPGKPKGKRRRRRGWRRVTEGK
# [7] = Vero E6 cell cytotoxicity, dose response, cytotoxicity control for non-replicating M. tuberculosis project, secondary assay (AID 492998); type: functional, VeroE6; settings: Vero C1008
# [8] = THP-1 cell cytotoxicity, dose response, cytotoxicity control for non-replicating M. tuberculosis project (AID 489025); type: functional
# cells [9] = type: functional
# H9c2 = assay: cells; type: functional, cell-based; settings: Rattus norvegicus, H9c2, Myocardium;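 further: confirmatory concentration-response retest of ultra-high-throughput screening hits for modulation of myocardial damage; cell death induced by hydrogen peroxide oxidative stress; compound pretreatment for 60 min then peroxide exposure for 2 h; potency is for protecting the cells against peroxide damage rather than for killing them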
# [10] = inhibitors of firefly luciferase expression or activity, dose response, H4 neuroglioma cells, luminescence (AID 1990); type: functional, cell-based
# Paired box protein Pax-8 = Paired box protein Pax-8 (Homo sapiens, UniProt Q06710); assay: inhibitors of PAX8-driven TPO luciferase reporter, dose response, RMG-I cells, cherry-pick (AID 687027); type: functional, cell-based;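 further: luciferase reporter driven by Pax8 target thyroperoxidase promoter measured by SteadyGlo luminescence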
# Sequence of Paired box protein Pax-8 (Q06710 whole entry): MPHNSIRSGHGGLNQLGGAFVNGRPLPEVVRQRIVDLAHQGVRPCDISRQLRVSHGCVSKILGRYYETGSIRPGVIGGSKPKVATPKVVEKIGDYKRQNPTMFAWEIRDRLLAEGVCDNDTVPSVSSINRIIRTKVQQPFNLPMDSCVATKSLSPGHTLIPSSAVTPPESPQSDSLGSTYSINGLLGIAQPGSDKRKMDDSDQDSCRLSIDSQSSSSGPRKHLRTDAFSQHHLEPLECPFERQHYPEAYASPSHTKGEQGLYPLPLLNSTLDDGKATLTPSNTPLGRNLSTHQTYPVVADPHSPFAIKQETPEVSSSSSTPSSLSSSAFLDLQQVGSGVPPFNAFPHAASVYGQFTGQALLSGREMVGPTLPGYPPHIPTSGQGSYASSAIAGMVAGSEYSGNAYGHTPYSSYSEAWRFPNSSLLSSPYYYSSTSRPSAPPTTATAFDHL
# [11] = cytotoxicity in OVCAR8 ovarian cancer cells, dose response, PAX8 project, cell-based, plate reader, dry powder samples (AID 743197); type: functional; settings: OVCAR-8
# Cytochrome P450 1A2 = target: T4, Cytochrome P450 1A2 (Homo sapiens, UniProt P05177);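 further: PubChem cytochrome P450 panel assay, CYP1A2 panel member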
# T4 sequence (P05177 whole entry): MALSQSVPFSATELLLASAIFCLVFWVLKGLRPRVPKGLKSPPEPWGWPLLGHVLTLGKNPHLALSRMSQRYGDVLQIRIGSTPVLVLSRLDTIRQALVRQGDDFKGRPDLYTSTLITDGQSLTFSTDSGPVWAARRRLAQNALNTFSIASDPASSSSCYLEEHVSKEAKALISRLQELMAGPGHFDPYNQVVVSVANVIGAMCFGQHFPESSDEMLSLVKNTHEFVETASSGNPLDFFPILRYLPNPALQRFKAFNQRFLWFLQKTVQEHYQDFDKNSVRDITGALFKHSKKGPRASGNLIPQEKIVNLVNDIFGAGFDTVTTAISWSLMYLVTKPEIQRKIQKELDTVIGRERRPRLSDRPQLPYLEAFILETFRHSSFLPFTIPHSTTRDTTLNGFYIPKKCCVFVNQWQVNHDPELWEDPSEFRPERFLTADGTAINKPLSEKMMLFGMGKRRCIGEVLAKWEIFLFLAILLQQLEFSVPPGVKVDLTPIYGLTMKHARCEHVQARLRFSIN
# Cytochrome P450 2C9 = Cytochrome P450 2C9 (Homo sapiens, UniProt P11712)
# Sequence of Cytochrome P450 2C9 (P11712 whole entry): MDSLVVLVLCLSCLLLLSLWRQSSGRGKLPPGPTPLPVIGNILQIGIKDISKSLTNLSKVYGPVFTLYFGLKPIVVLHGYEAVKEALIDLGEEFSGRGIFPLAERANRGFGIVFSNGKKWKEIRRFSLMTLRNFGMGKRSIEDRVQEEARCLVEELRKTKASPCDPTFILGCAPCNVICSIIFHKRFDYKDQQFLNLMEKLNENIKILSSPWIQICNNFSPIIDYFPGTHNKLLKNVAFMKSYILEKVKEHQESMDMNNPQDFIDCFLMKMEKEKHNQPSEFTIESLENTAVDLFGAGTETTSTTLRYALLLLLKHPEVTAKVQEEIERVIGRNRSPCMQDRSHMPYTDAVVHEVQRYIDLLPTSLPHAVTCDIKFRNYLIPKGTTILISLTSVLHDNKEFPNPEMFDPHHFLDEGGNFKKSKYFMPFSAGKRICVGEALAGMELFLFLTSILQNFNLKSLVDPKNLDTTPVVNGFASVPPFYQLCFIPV
smiles,measurement,setting,value
COC(=O)c1ccc(NC2CC(=O)N(c3ccccc3C)C2=O)cc1 (stereo not drawn),IC50,Prothrombin,> 50 µM (not active)
Cc1cccc(NC(=O)c2cnc3ccccn3c2=O)c1,AC50,HEK293,2.26 µM (active)
CC(=O)C(=NNc1ccc(-n2ccc(C(F)(F)F)n2)cc1)C(C)=O,IC50,[1],2.57 µM (active)
Cc1ccc(C(=O)Nc2nc(=O)n(C(=O)C3CC3)s2)cc1,IC50,Leucine aminopeptidase,19.3 µM (active)
Cc1ccc(Cn2ccc(NC(=O)C3C4CCC(C4)C3C(=O)O)n2)cc1 (stereo not drawn),IC50,Leucine aminopeptidase,10.2 µM (active)
CC(C)(C)SCCNS(=O)(=O)c1ccc2ccccc2c1,IC50,[1],> 50 µM (not active)
CC(=O)n1nc(-c2cccc(C)c2)nc1SCC(=O)Nc1ccccc1,IC50,Prothrombin,0.731 µM (active)
CS(=O)(=O)c1ccc(C(=O)N2CCc3ccccc3C2)cc1,IC50,[1],0.514 µM (not active)
Cc1cc(C)cc(Oc2nc(-c3ccccc3)cc(C)c2S(C)(=O)=O)c1,IC50,[1],6.25 µM (not active)
O=C(c1ccc(-c2ccc([N+](=O)[O-])cc2)o1)N1CCCCC1,IC50,Prothrombin,> 50 µM (not active)
CCc1ccc(N2CC(C(=O)Nc3ccccc3F)CC2=O)cc1 (stereo not drawn),IC50,Prothrombin,> 50 µM (not active)
CCOc1cc(N2CCOCC2)c(OCC)cc1NC(C)C(=O)N1CCC(C)CC1 (stereo not drawn),EC50,cells [2],> 350 µM (not active)
same,IC50,Large T antigen,17.1 µM (active)
same,EC50,cells [3],> 350 µM (not active)
CCOC(=O)CCP(=O)(O)C(O)c1ccc(OC)cc1 (stereo not drawn),IC50,Leucine aminopeptidase,8.59 µM (active)
O=C(c1nc2ccccc2s1)N1CCN(c2ccccn2)CC1,IC50,Prothrombin,> 50 µM (not active)
COc1cc(OC)cc(C(=O)n2cnnc2N)c1,IC50,Prothrombin,0.1 µM (active)
Cc1ccc(/C=C/c2nc3ccccc3s2)s1,EC50,[4],3.78 µM (active)
same,EC50,[5],10.7 µM (active)
same,AC50,HEK293,4.16 µM (active)
O=C(O)c1cccc(NC(=S)NC(=O)c2ccc(-c3ccccc3)cc2)c1,IC50,[1],> 50 µM (not active)
CCNCCNc1ccc(Cl)cc1[N+](=O)[O-],AC50,[6],> 20 µM (inactive)
O=C(Nc1ncccc1O)c1ccc(S(=O)(=O)NCc2ccco2)cc1,AC50,HEK293,20.7 µM (active)
C/C(=N\NC(=O)CCCNc1ccc(C)cc1)c1ccccn1,CC50,[7],14.3 µM (active)
same,CC50,[8],13.1 µM (active)
same,IC50,cells [9],18.4 µM (active)
same,IC50,H9c2,13.6 µM (active)
CCc1cc(C(=O)N/N=C/c2ccc(O)cc2O)c2ccccc2n1,EC50,cells [2],9.29 µM (active)
same,EC50,[4],7.63 µM (active)
same,EC50,[10],16.7 µM (active)
same,EC50,cells [3],> 350 µM (not active)
same,EC50,[5],13.3 µM (active)
Cc1nc(-[n+]2nc(-c3ccncc3)nn2-c2ccccc2)sc1C,AC50,[6],> 20 µM (inactive)
Cc1ccc(S(=O)(=O)N(C)C[C@@H]2OCCCC[C@H](C)Oc3ccc(NS(=O)(=O)c4ccc(F)cc4)cc3C(=O)N([C@H](C)CO)C[C@H]2C)cc1,AC50,Paired box protein Pax-8,5.5 µM (active)
same,AC50,[11],55.9 µM (active)
C[C@@H]1CN([C@H](C)CO)C(=O)c2c(c3ccccc3n2C)-c2ccccc2CO[C@H]1CN(C)C(=O)Nc1cccc(C(F)(F)F)c1,AC50,Paired box protein Pax-8,5.56 µM (active)
same,AC50,[11],> 70 µM (inactive)
C[C@@H]1CN([C@@H](C)CO)C(=O)c2c(c3ccccc3n2C)-c2ccccc2CO[C@H]1CN(C)S(=O)(=O)c1ccccc1F,AC50,Paired box protein Pax-8,5.88 µM (active)
same,AC50,[11],> 70 µM (inactive)
COc1cccc(S(=O)(=O)N(C)C[C@@H]2Oc3cc(C4=CCCCC4)ccc3S(=O)(=O)N([C@@H](C)CO)C[C@H]2C)c1,AC50,Paired box protein Pax-8,14.5 µM (active)
same,AC50,[11],49.6 µM (active)
C/C(=N\Nc1nc2ccccc2nc1C)c1ccccc1O,CC50,[7],> 20 µM (active)
same,CC50,[8],> 40 µM (active)
same,IC50,cells [9],2.54 µM (active)
COc1cc(C(=O)Oc2ccccc2/C=N/NC(=O)c2ccc(C)cc2)cc(OC)c1OC,EC50,cells [2],> 350 µM (not active)
same,AC50,Cytochrome P450 1A2,2.24 µM (inconclusive)
same,EC50,cells [3],> 350 µM (not active)
same,AC50,Cytochrome P450 2C9,0.316 µM (inconclusive)
